Data from US20110052697A1, “Aptamer-Directed Drug Delivery” (GWANGJU INSTITUTE OF SCIENCE & TECHNOLOGY, priority 2006, published 2011).
≈ marks a conversion by molar mass, not a printed value. Entries after “also recorded” stand apart in the source; their conditions may differ.

Experiments:
[1] = cited from earlier work
PC3 (PSMA−) cells = experiment: Cell uptake by confocal laser scanning microscopy, PC3; assay type: cell-based; details: 1.5 μM Dox, 2 hours
Protocol: (§1) Prostrate cancer cell lines LNCaP(PSMA+) and PC3 (PSMA−) (5*10^3 cells/mL) were grown in chamber slides in RPMI 1640 media with 10% fetal bovine serum for 24 hours to attain 70% confluence. Before incubation with complex, cells were pre-incubated with OPTIMEM media for 30 minutes, followed by incubation with physical complex of 1.0:1.1 molar ratio of Dox:aptamer with a doxorubicin concentration of 1.5 μM for 2 hours, the cells were washed with PBS twice, fixed with 3.5% HCHO for 10 minutes, washed, mounted with Vector mounting media and cover slipped. Fluorescence images were obtained (Carl Zeiss LSM 510, Ar laser 488, long pass filter 560,63× water lens.)

PC3 cells [2] = experiment: Flow cytometry of cellular uptake, PC3; assay type: cell-based; details: PC3 compared to LNCaP; 1.5 μM
Protocol: (§2) Cellular uptake of the complex was confirmed using flow cytometry (EPICS XL Flow cytometry systems, Beckman Coulter, Inc). Briefly, 5×10^4 cells were seeded onto 12 well plates (n=4) for 24 hours followed by incubation for 2 hours with the complex solution (1.0:1.1 mole ratio of Dox:aptamer) such that final Dox concentration was 1.5 μM. Cells were washed with PBS twice, trypsinized, centrifuged at 1000 rpm for 3 minutes and resuspended in PBS for FACS analysis. Data were processed with EXPO 32 software.

LNCaP cells [3] = experiment: Flow cytometry of cellular uptake, LNCaP; assay type: cell-based; details: LNCaP compared to PC3; 1.5 μM
Protocol: as §2

LNCaP(PSMA+) cells = experiment: Cell uptake by confocal laser scanning microscopy, LNCaP; assay type: cell-based; details: 1.5 μM Dox, 2 hours
Protocol: as §1

LNCaP cells [4] = details: MTT, QD 100 nM, Dox 5 μM
Protocol: (§3) The prostate LNCaP and PC3 cell lines were grown in 24-well plates in RPMI-1640 and Ham's F-12K medium, respectively, both supplemented with 100 units/ml aqueous penicillin G, 100 μg/ml streptomycin, and 10% FBS (fetal bovine serum) at concentrations to allow 70% confluence in 24 hours (i.e., 40,000 cells/cm^2). […] Cells were incubated with the conjugates for 3 hours at 37° C., washed two times with PBS (1 ml per well), and incubated in fresh growth media for a total of 72 hours. Cell viability was assessed colorimetrically with the MTT reagent (ATCC) following the standard protocol provided by the manufacturer. The absorbance was read with a microplate reader at 570 nm.

PC3 cells [5] = details: MTT, QD 100 nM, Dox 5 μM
Protocol: as §3

A10 PSMA aptamer = experiment: Fluorescence quenching titration of Dox with the A10 PSMA aptamer (Hill plot); assay type: binding; details: FIG. 2 inset
Protocol: A complex comprising the A10 PSMA aptamer (RNA-Tec, Belgium) and doxorubicin (Dox) was generated through the stepwise addition of increasing molar ratio of aptamer to a fixed concentration of doxorubicin (3 μM) in the presence of 0.1 M sodium acetate, 0.05 M sodium chloride, and 0.01 M magnesium chloride. The fluorescence of Dox was measured at 35 minutes by exciting the solution at 480 nm and recording the emission in the interval of 500 nm-720 nm (1.5 mm slit) on a Shimadzu RF-PC100 spectrofluorophotometer.

LNCaP cells [6] = details: cited from earlier work
PC3 cells [7] = details: cited from earlier work

CC(=O)O[C@@]12CO[C@@H]1C[C@H](O)[C@@]1(C)C(=O)[C@H](O)C3=C(C)[C@@H](OC(=O)[C@H](O)[C@@H](NC(=O)OC(C)(C)C)c4ccccc4)C[C@@](O)([C@@H](OC(=O)c4ccccc4)[C@H]21)C3(C)C [Dtxl, docetaxel]
water solubility [1]: 0.025 µg/mL (≈ 0.0309 µM)

COc1cccc2c1C(=O)c1c(O)c3c(c(O)c1C2=O)C[C@@](O)(C(=O)CO)C[C@@H]3O[C@H]1C[C@H](N)[C@H](O)[C@H](C)O1 [free Dox, doxorubicin]
uptake / staining by confocal microscopy (PC3 (PSMA−) cells): readily diffuses through the plasma membrane
staining by flow cytometry (PC3 cells [2]): near-identical staining
staining by flow cytometry (LNCaP cells [3]): near-identical staining
uptake / staining by confocal microscopy (LNCaP(PSMA+) cells): readily diffuses through the plasma membrane; also recorded: almost exclusively stains nuclei
cytotoxicity (LNCaP cells [4]): equipotent
cytotoxicity (PC3 cells [5]): equipotent
Kd expressed as equiv of the aptamer (A10 PSMA aptamer): 0.52 equiv

B1: free aptamer: A10 RNA aptamer that binds to the PSMA protein on the surface of prostate cancer cells (Lupold et al., 2002) (nucleic acid)
chain: GGGAGGACGAUGCGGAUCAGCCAUGUUUACGUCACUCCUUGUCAAUCCUCAUCGGCAGACGACUCGCCCGA
modifications: chemistry not given here
cytotoxicity, previously reported (LNCaP cells [6]): no cytotoxicity
cytotoxicity, previously reported (PC3 cells [7]): no cytotoxicity
